The values below come from ChEMBL document CHEMBL1201862, “PubChem BioAssay data set” (2004).

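Following 48 hours of exposure in 96-well plates, responses at five concentrations were used to interpolate endpoints linearly. GI50: concentration for 50% inhibition of growth.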 Active and inactive are the calls of the source. Rule as the data show it: active = GI50 up to about 1.1 µM and inactive = higher. Where only a bound is given, the exact number is not on record here.

Test systems include HCT-15; SN12C; HT-29; T47D; NCI-H23; KM12; SK-MEL-2; SK-MEL-5; UACC-62; COLO 205; HOP-92; SK-OV-3; SW-620; SR; HOP-62; NCI-H460; K562; SF-268; MDA-MB-231.
Assay in all cases: NCI tumour cell line growth inhibition, 48 h

In the case of `CC(=O)OCC1OC(n2c(N)c(C#N)c(-c3ccccc3)c(C#N)c2=S)C(OC(C)=O)C(OC(C)=O)C1OC(C)=O` (configuration not stated), the GI50 in the test on HCT-15 is over 100 µM; in the test on SN12C, > 100 µM (inactive); in the test with HT-29, > 100 µM (inactive); in the test with T47D, > 81.1 µM (inactive); in the test with NCI-H23, > 65.8 µM (inactive); in the test with KM12, > 100 µM (inactive). In addition, the GI50 with SK-MEL-2 was > 58.9 µM (inactive); with SK-MEL-5 it was > 100 µM (inactive); in the test with UACC-62, > 61.8 µM (inactive); in the test with COLO 205, > 100 µM (inactive); in the test with HOP-92, 11.8 µM (inactive); in the test with SK-OV-3, 54.2 µM (inactive). The GI50 was > 100 µM (inactive) in the test with SW-620; > 100 µM (inactive) in the test on SR; 11.6 µM (inactive) with HOP-62; > 79.8 µM (inactive) with NCI-H460; > 100 µM (inactive) in the test with K562; 7.8 µM (inactive) in the test on SF-268. In the test with MDA-MB-231, the GI50 was 34 µM (inactive).
For the compound `OC(CC(CC(O)(C(F)(F)Cl)C(F)(F)Cl)=NNc1ccccc1)(C(F)(F)Cl)C(F)(F)Cl`, the GI50 in the test on HCT-15 is 3.23 µM; in the test on SN12C it was 3.36 µM (inactive); in the test on HT-29 it was 3.06 µM (inactive); in the test with T47D it was 4.11 µM (inactive); with NCI-H23, 2.41 µM (inactive); with KM12 it was 3.12 µM (inactive). Also, the GI50 with SK-MEL-2 is 1.4 µM (inactive); with SK-MEL-5 it was 1.71 µM (inactive); in the test with UACC-62, 1.66 µM (inactive); with COLO 205, 1.91 µM (inactive); in the test with HOP-92 it was 2.01 µM (inactive); with SK-OV-3, 4.04 µM (inactive). Also, the GI50 with SW-620 is 3.27 µM (inactive); in the test with SR, 5.79 µM (inactive); in the test with HOP-62, 3.43 µM (inactive); in the test on NCI-H460, 3.04 µM (inactive); in the test on K562, > 10 µM (inactive); with SF-268 it was 2.55 µM (inactive). The GI50 in the test on MDA-MB-231 was 2.78 µM (inactive).
For `COc1ccc2c(c1)-c1nn(CCN(C)C)c3ccc(C(=O)NCCCN(C)CCCNC(=O)c4ccc5c6c(c7cc(OC)ccc7nc46)NN5CCN(C)C)c(c13)N2`, the GI50 in the test with HCT-15 is 0.251 µM; with SN12C, 0.0225 µM (active); in the test with HT-29, 0.0213 µM (active); in the test on T47D, 0.158 µM (active); in the test on NCI-H23 it was 0.0344 µM (active); in the test with KM12, 0.0284 µM (active). Besides, the GI50 in the test with SK-MEL-2 is 0.0184 µM (active); in the test on SK-MEL-5 it was 0.0512 µM (active); in the test on UACC-62, 0.0692 µM (active); in the test with COLO 205, 0.0169 µM (active); in the test on HOP-92, 0.0478 µM (active); in the test on SK-OV-3, 0.0861 µM (active). Further, the GI50 with SW-620 was 0.018 µM (active); in the test on SR, 0.127 µM (active); with HOP-62, 0.0318 µM (active); with NCI-H460 it was 0.0187 µM (active); with K562, 0.0128 µM (active); with SF-268, 0.153 µM (active). For the same compound, in the test on MDA-MB-231, the GI50 was 0.114 µM (active).
In the case of `O=C(CCc1ccc(O)c(O)c1)NCCc1cc(OCc2ccccc2)cc(OCc2ccccc2)c1`, the GI50 in the test with HCT-15 is 3.03 µM; with SN12C, 10.4 µM (inactive); in the test on HT-29 it was 10.1 µM (inactive); in the test with T47D it was 16.4 µM (inactive); in the test on NCI-H23, 14.1 µM (inactive); in the test on KM12 it was 8.99 µM (inactive). In addition, the GI50 in the test on SK-MEL-2 was 17.9 µM (inactive); with SK-MEL-5, 12.2 µM (inactive); in the test on UACC-62, 14.9 µM (inactive); in the test on COLO 205, 2.81 µM (inactive); in the test on HOP-92 it was 8.87 µM (inactive); in the test on SK-OV-3 it was 14 µM (inactive). Further, the GI50 in the test with SW-620 was 7.1 µM (inactive); with SR, 2.88 µM (inactive); with HOP-62, 13.1 µM (inactive); with NCI-H460, 5.55 µM (inactive); with K562, 5.92 µM (inactive); in the test on SF-268 it was 8.45 µM (inactive). In addition, the GI50 in the test with MDA-MB-231 is 16.6 µM (inactive).
Regarding `O=[N+]([O-])c1ccc2c(c1)c(S(=O)(=O)O)cc1nonc12`, the GI50 is over 100 µM in the test with HCT-15; > 100 µM (inactive) with SN12C; > 100 µM (inactive) in the test with HT-29; > 100 µM (inactive) with T47D; > 100 µM (inactive) in the test with NCI-H23; > 100 µM (inactive) in the test on KM12. Moreover, the GI50 in the test with SK-MEL-2, in the test with SK-MEL-5, with UACC-62, in the test on COLO 205, in the test on HOP-92 and with SK-OV-3 was > 100 µM (inactive) throughout. The GI50 in the test on SW-620, with SR, in the test with HOP-62, in the test with NCI-H460, with K562 and in the test on SF-268 was > 100 µM (inactive) throughout. For the same compound, the GI50 in the test on MDA-MB-231 was > 100 µM (inactive).
Consider `CC(C)(C)CC(C)(C)N/C(N)=N/O`, for which the GI50 with HCT-15 was 56.1 µM; in the test on SN12C, > 100 µM (inactive); in the test on HT-29, > 100 µM (inactive); with T47D, > 32.7 µM (inactive); in the test on NCI-H23, > 91 µM (inactive); in the test with KM12, > 100 µM (inactive). Further, the GI50 with SK-MEL-2 was > 100 µM (inactive); with SK-MEL-5, 51.8 µM (inactive); with UACC-62, > 100 µM (inactive); with COLO 205, > 100 µM (inactive); with HOP-92, 20.3 µM (inactive); in the test with SK-OV-3 it was 24.1 µM (inactive). In addition, the GI50 with SW-620 was > 100 µM (inactive); in the test on SR it was > 81.5 µM (inactive); in the test with HOP-62 it was > 100 µM (inactive); in the test on NCI-H460, > 83.2 µM (inactive); in the test on K562, 28.8 µM (inactive); in the test on SF-268, > 89.3 µM (inactive). The GI50 in the test on MDA-MB-231 is > 100 µM (inactive).
Take `Cc1cn(C(CO)OC(CO)CN(O)C2C3CC4CC(C3)CC2C4)c(=O)[nH]c1=O` (configuration not stated): the GI50 with HCT-15 was over 100 µM; with SN12C, > 100 µM (inactive); in the test with HT-29 it was > 100 µM (inactive); with T47D it was > 100 µM (inactive); in the test on NCI-H23, > 100 µM (inactive); in the test on KM12 it was > 100 µM (inactive). For the same compound, the GI50 in the test on SK-MEL-2, with SK-MEL-5, in the test with UACC-62, in the test with COLO 205, in the test on HOP-92 and in the test with SK-OV-3 was > 100 µM (inactive) throughout. Also, the GI50 in the test with SW-620, in the test on SR, with HOP-62, in the test on NCI-H460, with K562 and with SF-268 was > 100 µM (inactive) throughout. Besides, the GI50 with MDA-MB-231 was > 100 µM (inactive).
Consider `CN(C)c1nc(N)c(C#N)c(C#N)c1C#N`, for which the GI50 in the test with HCT-15 was over 10 µM; with SN12C, > 10 µM (inactive); in the test on HT-29 it was > 10 µM (inactive); in the test with T47D, > 8.32 µM (inactive); in the test on NCI-H23, > 7.46 µM (inactive); in the test on KM12, > 10 µM (inactive). Also, the GI50 is > 10 µM (inactive) in the test with SK-MEL-2; > 10 µM (inactive) in the test on SK-MEL-5; > 10 µM (inactive) in the test with UACC-62; > 8.81 µM (inactive) in the test on COLO 205; > 10 µM (inactive) with HOP-92; > 10 µM (inactive) in the test with SK-OV-3. For the same compound, the GI50 was 8.73 µM (inactive) in the test with SW-620; 3.42 µM (inactive) with SR; > 10 µM (inactive) with HOP-62; > 10 µM (inactive) with NCI-H460; > 4.61 µM (inactive) in the test on K562; > 10 µM (inactive) in the test with SF-268. For the same compound, in the test with MDA-MB-231, the GI50 is > 10 µM (inactive).
